From US20100004235A1, “Heterocyclic Substituted, Anellated Pyrazole Derivative and its uses” (BAYER HEALTHCARE AG, priority 2006, published 2010)

System: rabbit aorta rings
Assay: Vasorelaxant effect in vitro (rabbit aorta rings, phenylephrine-induced contraction)
Conditions: Oryctolagus cuniculus; concentration reducing the height of the phenylephrine-induced contraction of rabbit aorta rings by 50%; 0.1% DMSO
Experimental: Rabbits are stunned by a blow to the neck and exsanguinated. The aorta is removed, freed from adhering tissue and divided into rings of a width of 1.5 mm. The rings are placed individually under an initial tension in 5 ml organ baths with Krebs-Henseleit solution which is at 37° C., is gassed with carbogen and has the following composition (in each case mM): NaCl: 119; KCl: 4.8; CaCl2×2H2O: 1; MgSO4×7H2O: 1.4; KH2PO4: 1.2; NaHCO3: 25; glucose: 10. The force of contraction is detected with Statham UC2 cells, amplified and digitized via A/D converters (DAS-1802 HC, Keithley Instruments, Munich) and recorded in parallel on chart recorders. Contractions are induced by cumulatively adding increasing concentrations of phenylephrine to the bath. After several control cycles, the substance to be investigated is added in each further run in increasing dosage, and the height of the contraction achieved is compared with the height of the contraction reached in the last preceding one. The concentration necessary to reduce the height of the control value by 50% is calculated from this (IC50 value). The standard application volume is 5 μl, the proportion of DMSO in the bath solution corresponds to 0.1%.

Compound | IC50 [nM]
Fc1ccccc1Cn1nc(-c2noc(=S)[nH]2)c2cccnc21 [Example 7, 3-[1-(2-Fluorobenzyl)-1H-pyrazolo[3,4-b]pyridin-3-yl]-1,2,4-oxadiazole-5(4H)-thione] | 1100
O=c1[nH]nc(-c2nn(Cc3ccccc3F)c3ncccc23)o1 [Example 3, 5-[1-(2-Fluorobenzyl)-1H-pyrazolo[3,4-b]pyridin-3-yl]-1,3,4-oxadiazol-2(3H)-one] | 610

Results, then the compound that gave them:

IC50 [nM] | Compound
610 | O=c1[nH]c(-c2nn(Cc3ccccc3F)c3ncccc23)nn1CC(F)(F)F [Example 18, 5-[1-(2-Fluorobenzyl)-1H-pyrazolo[3,4-b]pyridin-3-yl]-2-(2,2,2-trifluoroethyl)-2,4-dihydro-3H-1,2,4-triazol-3-one]
450 | O=c1[nH]c(-c2nn(Cc3ccccc3F)c3ncccc23)ns1 [Example 2, 3-[1-(2-Fluorobenzyl)-1H-pyrazolo[3,4-b]pyridin-3-yl]-1,2,4-thiadiazol-5(4H)-one]
2100 | O=c1[nH]c(-c2nn(Cc3ccccc3F)c3ncccc23)no1 [Example 1, 3-[1-(2-Fluorobenzyl)-1H-pyrazolo[3,4-b]pyridin-3-yl]-1,2,4-oxadiazol-5(4H)-one]
2100 | CC(=O)OCCn1nc(-c2nn(Cc3ccccc3F)c3ncccc23)[nH]c1=O [Example 19, 2-{3-[1-(2-Fluorobenzyl)-1H-pyrazolo[3,4-b]pyridin-3-yl]-5-oxo-4,5-dihydro-1H-1,2,4-triazol-1-yl}ethyl acetate]

System: vessel
Assay: not given
Conditions: literature report; cited from earlier work

Compound | vessel-relaxing effect
Fc1ccccc1Cn1nc(-c2nnn[nH]2)c2cccnc21 [1-(2-fluorobenzyl)-3-(1H-tetrazol-5-yl)-1H-pyrazolo[3,4-b]pyridine] | moderate
